According to patent publication US7038085B2, “Stereoisomers of p-hydroxy-milnacipran, and methods of use thereof” (Collegium Pharmaceutical, Inc., priority 2002, dated 2006):

Columns and labels:
[1] = target: T1, Norepinephrine Transporter (NET) (Homo sapiens, UniProt P23975); experiment: Transporter, Norepinephrine (NET) radioligand binding (cat. 204410); conditions: for Ki: human recombinant MDCK cells, [125I] RTI-55, Ki by Cheng and Prusoff, read-out: Ki, displacement of radioligand from Norepinephrine Transporter binding sites
T1 sequence (P23975 whole entry): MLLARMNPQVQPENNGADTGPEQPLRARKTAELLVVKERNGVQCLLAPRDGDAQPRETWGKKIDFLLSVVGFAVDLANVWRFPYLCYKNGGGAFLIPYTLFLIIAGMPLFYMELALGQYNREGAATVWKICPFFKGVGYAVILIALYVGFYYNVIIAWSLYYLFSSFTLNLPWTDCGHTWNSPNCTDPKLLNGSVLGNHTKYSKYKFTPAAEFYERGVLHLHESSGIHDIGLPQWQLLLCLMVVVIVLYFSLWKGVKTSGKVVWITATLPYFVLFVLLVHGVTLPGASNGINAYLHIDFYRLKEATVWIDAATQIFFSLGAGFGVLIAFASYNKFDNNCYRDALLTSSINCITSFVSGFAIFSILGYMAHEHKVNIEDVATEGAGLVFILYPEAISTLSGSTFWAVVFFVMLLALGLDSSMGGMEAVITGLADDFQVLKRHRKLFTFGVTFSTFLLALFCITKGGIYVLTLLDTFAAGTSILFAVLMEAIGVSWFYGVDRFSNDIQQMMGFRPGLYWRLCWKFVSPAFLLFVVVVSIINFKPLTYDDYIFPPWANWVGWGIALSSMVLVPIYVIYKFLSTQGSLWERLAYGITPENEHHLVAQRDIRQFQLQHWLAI
Method: (§1) The methods employed in this study have been adapted from the scientific literature to maximize reliability and reproducibility. Reference standards were run as an integral part of each assay to ensure the validity of the results obtained. Assays were performed under conditions as described below. Literature reference(s) for each assay are tabulated below and hereby incorporated by reference.
(§2) Where presented, IC50 values were determined by a non-linear, least squares regression analysis using Data Analysis ToolboX™ (MDL Information Systems, San Leandro, Calif., USA). Where inhibition constants (Ki) are presented, the Ki values were calculated using the equation of Cheng and Prusoff(Cheng, Y., Prusoff, W. H., Biochem. Pharmacol. 22:30993108, 1973) using the observed IC50 of the tested compound, the concentration of radioligand employed in the assay, and the historical values for the Kd of the ligand (obtained experimentally at MDS Pharma Services). Where presented, the Hill coefficient (nH), defining the slope of the competitive binding curve, was calculated using Data Analysis Toolbox™. […] Where IC50, Ki, and/or nH data are presented without Standard Error of the Mean (SEM), data are insufficient to be quantitative, and the values presented (Ki, IC50, nH) should be interpreted with caution.
(§3) Where presented, IC50 values were determined by a non-linear, least squares regression analysis using Data Analysis Toolbox™ (MDL Information Systems, San Leandro, Calif., USA). Where inhibition constants (Ki) are presented, the Ki values were calculated using the equation of Cheng and Prusoff (Cheng, Y., Prusoff, W. H., Biochem. Pharmacol. 22:3099–3108, 1973) using the observed IC50 of the tested compound, the concentration of radioligand employed in the assay, and the historical values for the KD of the ligand (obtained experimentally at MDS Pharma Sarvices.

[2] = target: T2, Serotonin Transporter (SERT) (Homo sapiens, UniProt P31645); experiment: Transporter, Serotonin (5-Hydroxytryptamine) (SERT) radioligand binding (cat. 274020); conditions: for Ki: human recombinant HEK-293 cells, [125I] RTI-55, Ki by Cheng and Prusoff, read-out: Ki, displacement of radioligand from Serotonin Transporter binding sites
T2 sequence (P31645 whole entry): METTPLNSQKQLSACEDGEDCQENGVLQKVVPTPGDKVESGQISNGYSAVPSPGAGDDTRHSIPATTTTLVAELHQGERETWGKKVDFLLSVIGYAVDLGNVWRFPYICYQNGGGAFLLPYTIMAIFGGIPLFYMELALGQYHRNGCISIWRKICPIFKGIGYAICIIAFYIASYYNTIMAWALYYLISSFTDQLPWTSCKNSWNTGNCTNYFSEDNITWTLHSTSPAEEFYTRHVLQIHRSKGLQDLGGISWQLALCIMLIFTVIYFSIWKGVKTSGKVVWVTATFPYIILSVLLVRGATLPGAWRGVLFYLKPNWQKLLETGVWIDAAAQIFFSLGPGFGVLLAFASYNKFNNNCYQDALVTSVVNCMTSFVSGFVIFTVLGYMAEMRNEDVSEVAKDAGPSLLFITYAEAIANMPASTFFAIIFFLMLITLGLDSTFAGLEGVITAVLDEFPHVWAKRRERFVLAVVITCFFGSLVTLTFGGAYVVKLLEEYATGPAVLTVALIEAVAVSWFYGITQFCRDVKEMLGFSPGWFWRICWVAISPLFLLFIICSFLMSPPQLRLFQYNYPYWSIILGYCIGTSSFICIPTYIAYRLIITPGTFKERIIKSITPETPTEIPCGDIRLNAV
Method: as §1, §2, §3

Norepinephrine Uptake = Norepinephrine Uptake (Homo sapiens, UniProt P23975); experiment: Inhibition of cellular Norepinephrine Uptake (cat. 302000); type: cell-based; conditions: for IC50: cellular uptake, FIG. 61
Norepinephrine Uptake, sequence (P23975 whole entry): as the sequence (P23975 whole entry) above
Method: (§4) The methods employed have been adapted from the scientific literature to maximize reliability and reproducibility. Reference standards were run as an integral part of each assay to ensure the validity of the results obtained. Assays were performed under the conditions described below. The literature reference(s) for each assay are are listed below.
as §3

Serotonin Uptake = Serotonin Uptake (Homo sapiens, UniProt P31645); experiment: Inhibition of cellular Serotonin Uptake (cat. 364000); type: cell-based; conditions: for IC50: cellular uptake, FIG. 61
Serotonin Uptake, sequence (P31645 whole entry): as the sequence (P31645 whole entry) above
Method: as §4, §3

[3] = Cytotoxicity, fluorometric assay run with the uptake assays (cat. 302100, 364100); type: cell-based; conditions: at 10 μM
Description: • 118090. Crespi, C. L., Miller, V. P and Penman, B. W. (1997) Microtiter plate assays for inhibition of human, drug-metabolizing cytochromes P450. Anal Biochem 248(1): 188–190. • Gentest Technical Bulletin (Version 4.2: Revised 27 Sep. 2000) A high throughput method for measuring cytochrome P450 inhibition. Gentest Technical Bulletin (Version 4.2) Revised 27 Sep. 2000). • 204410. Galli, A., DeFelice, L., Duke, B.-J., Moore, K. Blakely, R. (1995) Sodium dependent norepinephrine induced currents in norephinephrine transporter transfected HEK293 cells blocked by cocaine and antidepressants. J. Exp. Biol. 198:2197–2212. • 212610. Eggerickx, D., Raspe, E. Bertrand, D., Vassart, G., Parmentier, M. (1992) Molecular cloning, functional expression and pharmacological characterization of a human bradykinin B2 receptor gene. Biochem Biophys Res Commun 187 (3): 1306–1313. • 214510. Schoemaker, H. and Langer, S. Z. (1985) [3H]Diltiazem binding to calcium channel antagonist recognition sites in rat cerebral cortex. Eur. J. Pharmacol. 111:273–277. • 274020. […] J. Biol. Chem. 269(10):7124–7130. • 302000. Galli, A., DeFelice, L. Duke, B.-J., and Blakely, R. (1995) Sodium dependent norephinephrine-induced currents in norepinephrine-transporter-transfected HEK-293 cells blocked by cocaine and antidepressants. J. Exp. Biol. 198:2197–2212. • 302100. Page, B., Page, M. and Noel, C. (1993) A new fluorometric assay for cytotoxicity measurements in vitro. […] 3:473–476, 1993. • 364000. […] J. Biol. Chem. […]:7124–7130. • 364100. Page, B., Page, M. and Noel, C. (1993) A new fluorometric assay for cytotoxicity measurements in vitro. Int. J. Oncology 3:473–476, 1993.

other receptors = experiment: Radioligand binding assay panel, other receptors (FIGS. 32 and 33); parameters: species or system human, mouse, guinea pig, syrian hamster, rat; conditions: radioligand binding assays at 10 μM
Method: as §1

uptake of dopamine = uptake of dopamine (Homo sapiens, UniProt Q01959); conditions: cited from earlier work
uptake of dopamine, sequence (Q01959 whole entry): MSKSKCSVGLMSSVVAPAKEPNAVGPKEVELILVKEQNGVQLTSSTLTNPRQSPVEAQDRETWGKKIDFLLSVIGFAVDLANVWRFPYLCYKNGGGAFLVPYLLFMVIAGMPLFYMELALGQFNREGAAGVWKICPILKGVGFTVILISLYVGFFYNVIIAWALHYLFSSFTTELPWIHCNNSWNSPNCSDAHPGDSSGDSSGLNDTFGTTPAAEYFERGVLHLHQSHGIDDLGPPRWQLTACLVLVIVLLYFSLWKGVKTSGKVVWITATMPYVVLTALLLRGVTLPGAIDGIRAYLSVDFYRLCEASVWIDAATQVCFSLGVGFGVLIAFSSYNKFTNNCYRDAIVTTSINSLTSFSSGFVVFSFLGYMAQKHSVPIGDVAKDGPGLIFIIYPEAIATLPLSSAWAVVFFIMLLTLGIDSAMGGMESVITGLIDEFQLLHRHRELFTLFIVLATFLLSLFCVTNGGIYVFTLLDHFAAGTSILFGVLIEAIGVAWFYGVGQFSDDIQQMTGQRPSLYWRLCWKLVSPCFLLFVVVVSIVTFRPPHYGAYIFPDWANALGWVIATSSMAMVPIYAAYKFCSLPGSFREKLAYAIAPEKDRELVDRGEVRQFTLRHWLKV

[4] = tested on: alpha or beta adrenergic, muscarinic, histaminergic, and dopaminergic receptors; conditions: cited from earlier work
beta adrenoceptors = conditions: after chronic administration; Briley et al. 1996; cited from earlier work
[5] = tested on: norepinephrine (NE) and serotonin (5-HT) uptake; conditions: Viazzo et al. 1996; Deprez et al. 1998; cited from earlier work
[6] = target: T1, Norepinephrine Transporter (NET); conditions: radioligand [125I] RTI-55; Human recombinant MDCK cells; historical value (*); cited from earlier work
[7] = target: T2, Serotonin Transporter (SERT); conditions: radioligand [125I] RTI-55; Human recombinant HEK-293 cells; historical value (*); cited from earlier work

Row | SMILES | Ki [1] [nM] | Ki [2] [nM] | IC50 (Norepinephrine Uptake) [nM] | IC50 (Serotonin Uptake) [nM] | cytotoxicity [3] | other results
1 | CCN(CC)C(=O)C1(c2ccc(O)cc2)CC1CN (racemic) [CS1814, racemic 2-Aminomethyl-1-(4-hydroxy-phenyl)-cyclopropanecarboxylic acid diethyl amide] | 218 | 6.73 | 28.6 | 21.7 | no cytotoxicity was observed | IC50 ([1]; radioligand binding, FIG. 59, read-out: IC50 for inhibition of norepinephrine transporter): 220 nM; IC50 ([2]; radioligand binding, FIG. 59, read-out: IC50 for inhibition of serotonin transporter): 12.7 nM; potency of inhibition of norepinephrine uptake compared to inhibition of serotonin uptake (Norepinephrine Uptake): approximately equal potency; binding to other receptors (other receptors): generally does not bind well to other receptors
2 | CCN(CC)C(=O)[C@@]1(c2ccccc2)C[C@H]1CN (racemic) [Milnacipran, milnacipran] | – | – | – | – | – | effect on the uptake of dopamine (uptake of dopamine): does not affect the uptake of dopamine; affinity for alpha or beta adrenergic, muscarinic, histaminergic, and dopaminergic receptors [4]: no affinity; effect on the number of beta adrenoceptors in rat cortex (beta adrenoceptors): does not affect the number of beta adrenoceptors
3 | CCN(CC)C(=O)[C@@]1(c2ccc(O)cc2)C[C@H]1CN [CS1713, 1S, 2R 2-Aminomethyl-1-(4-hydroxy-phenyl)-cyclopropanecarboxylic acid diethyl amide] | 112 | 3.88 | 10.3 | 22 | no cytotoxicity was observed | potency of inhibition of norepinephrine uptake compared to inhibition of serotonin uptake (Norepinephrine Uptake): approximately two-fold
4 | CCN(CC)C(=O)[C@]1(c2ccc(O)cc2)C[C@@H]1CN.Cl [CS1714, 1R, 2S 2-Aminomethyl-1-(4-hydroxy-phenyl)-cyclopropanecarboxylic acid diethyl amide] | 1680 | 8.15 | 88.5 | 40.3 | no cytotoxicity was observed | potency of inhibition of serotonin uptake compared to inhibition of norepinephrine uptake (Serotonin Uptake): approximately two-fold
5 | CCN(CC)C(=O)[C@@]1(c2ccccc2)C[C@H]1CN [F2695, (+)-1S,2R-milnacipran] | – | – | – | – | – | activity in inhibiting norepinephrine and serotonin reuptake compared with the racemic mixture [5]: roughly twice
6 | CCN(CC)C(=O)[C@]1(c2ccccc2)C[C@@H]1CN [F2696, (−)-1R,2S-milnacipran] | – | – | – | – | – | activity in inhibiting norepinephrine and serotonin reuptake compared with the racemic mixture [5]: much less potent
7 | COC(=O)[C@H]1[C@@H](c2ccc(I)cc2)C[C@@H]2CC[C@H]1N2C [[^125I] RTI-55] | – | – | – | – | – | Kd [6]: 24 nM; Kd [7]: 0.17 nM
